Measurements taken from patent publication US8202873B2, “2-[4-(pyrazol-4-ylalkyl)piperazin-1-yl]-3-phenyl pyrazines as 5-HT7 receptor antagonists” (Eli Lilly and Company, priority 2007, dated 2012).
Marks after values point to notes of the source that are not given here.

Experiments:
adult male CF-1 mice = assay: Foot electroshock stress induced cGMP elevation model for anxiety; format: in vivo; details: normalized to vehicle/no stress group, mean
From the text: The foot electroshock stress induced cGMP elevation model for anxiety is an established anxiety model, wherein stress from an unavoidable electroshock to the feet induces an elevation in cerebellar cGMP levels, which elevation is reduced or blocked by preadministration of anxiolytic compounds (Sethy and Oien (1991), Pharmacology Biochemistry & Behavior, vol. 39, pg. 379-382). Briefly, adult male CF-1 mice (25-30 g Harlan, Indianapolis, Ind.) are housed under a 12-hr light/dark cycle in a temperature and humidity controlled environment. Mice are habituated to the environment for at least 3 days and all studies are carried out between 9:00 AM and 12:00 noon to reduce the effects of diurnal fluctuations. Test mice are given a single intraperitoneal injection of test compound or control (vehicle is 3% DMSO, 20% emulphor stock, 10% lactic acid stock) and are sacrificed approximately 30 min. after dosing, using a beam of microwave radiation (microwave fixation system model GA5013; Gerling Applied Engineering, Modesto, Calif.) focused on the skull for 0.5 sec. at high power setting. This method preserves tissue cGMP content. After microwaving, a small piece (10-20 mg) of cerebellar cortex is quickly removed from the skull. The tissue is weighed and then homogenized in 2 ml of 1.0% perchloric acid. Tissue homogenate is kept on ice for 30 min followed by 5 min. in a boiling water bath. The homogenate is then centrifuged at 11,700 g for 20 min. 1 mL of supernatant is then acetylated with 40 μl of triethylamine and 20 μl of acetic anhydride, vortexed, and centrifuged at 13,000 g for 20 min at 4° C. Acetylated mouse cerebellum samples are stored at 4° C. pending cGMP analysis by radioimmunoassay with the cGMP ^125I Flash Plate radioimmunoassay test kit (PerkinElmer Life and Analytical Sciences, Boston, Mass.) on duplicate samples from each animal as per manufacturer's instructions.
For stressed mouse groups, 30 min. post injection, mice are subjected to a 1.0 mA foot-shock for 10 sec. in a Habitest Operant cage equipped with a modular shock floor (Habitest Modular Test System, Coulbourn Instruments, Allentown, Pa.). Mice are then sacrificed and cerebellar cortex samples are processed as described.
For each animal, cGMP levels are normalized to wet tissue weight and used to compute group averages and S.E.M. (typically 4-6 mice per group). All data are analyzed on the log scale to correct problems with heterogeneity of variance. Statistical analyses are performed using ANOVA followed by Dunnett's method to compare each treatment group to the vehicle group.

Male Sprague Dawley rats [1] = assay: Formalin model of persistent pain; format: in vivo; details: formalin into hind paw
Protocol: The “formalin model” of persistent pain, particularly for inflammatory pain and neuropathic pain, is well known and can be used to test compounds for pain blocking and/or analgesic activity. (see Shibata M. et al., Pain (1989) 38: 347-352; and Tjolsen A. et al., Pain (1992) 51:5-17.)
Male Sprague Dawley rats (Harlan Labs, Indianapolis, Ind.) weighing between 200-250 g are maintained at constant temperature (21-23° C.) and light (12 hr. light/12 hr. dark), with free access to food and water for 7 days prior to testing. All testing is conducted during the light cycle after fasting over night and with the testing room temperature maintained at constant temperature (21-23° C.). […]
The animals are administered either vehicle or test compound and individually placed in holding cylinders. […] The cylinders are then placed on the load cells of the detection system and the response monitored continuously for 60 min. in 1-second bins (i.e. collections periods). As previously described by Jett and Michelson, the formalin-induced movements, “events,” detected by the system include licking and flinching the affected paw. […]
Data are evaluated by one-way analysis of variance (ANOVA) and the appropriate contrasts analyzed by the Dunnett ‘t’ test for 2-sided comparisons using JMP statistical analysis program (v5.1.1 SAS Institute Inc., Cary, N.C.). […]

5-HT7 receptor = molecular target: T1, 5-HT7 receptor (Homo sapiens, UniProt P34969); assay: Functional antagonist assay: measurement of cAMP formation; format: cell-based
T1 construct: expressed in transfected cells; host or cells: AV-12 cells
T1 sequence (P34969 whole entry): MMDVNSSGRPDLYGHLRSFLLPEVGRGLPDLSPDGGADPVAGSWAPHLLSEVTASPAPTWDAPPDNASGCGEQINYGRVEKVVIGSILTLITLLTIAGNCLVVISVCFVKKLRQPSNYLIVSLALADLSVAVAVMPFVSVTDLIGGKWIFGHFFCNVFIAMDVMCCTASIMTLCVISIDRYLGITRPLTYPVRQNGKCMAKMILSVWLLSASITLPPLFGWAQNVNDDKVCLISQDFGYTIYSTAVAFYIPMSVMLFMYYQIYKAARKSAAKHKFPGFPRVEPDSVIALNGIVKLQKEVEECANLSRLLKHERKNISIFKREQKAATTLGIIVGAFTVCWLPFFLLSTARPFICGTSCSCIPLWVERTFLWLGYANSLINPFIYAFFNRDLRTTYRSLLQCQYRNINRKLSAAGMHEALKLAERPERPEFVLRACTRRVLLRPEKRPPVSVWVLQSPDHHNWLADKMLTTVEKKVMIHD
Protocol: For cAMP functional assays, the 5-HT7-expressing cells from above are grown in 150 cm^2 flasks and processed essentially as follows. The media is aspirated from the flasks and cells are washed with 1 mL PBS. The cells are trypsinized and resuspended in complete media. A sample of the cells is counted and the remainder is centrifuged as above for 3 min. The resulting cell pellet is resuspended in PBS at a concentration of 1×10^6 cells per mL and used directly in the cAMP assay as described.
The 5-HT7 receptor is functionally coupled to a G-protein as measured by the ability of serotonin and serotonergic drugs to stimulate cAMP production in CHO cells transfected with the 5-HT7 receptor. (Ruat, et al., Proceedings of the National Academy of Sciences (USA), 90:8547-8551, 1993.) Accordingly, functional receptor activity can be measured by measuring adenylate cyclase activity using a commercially available cell-based, homogeneous, time resolved fluorescence assay kit, as for example the kit produced by Cisbio-US, Inc. (Bedford, Mass.). Essentially, and using the protocol and reagents provided by the manufacturer, approximately 20,000 human 5-HT7 receptor-expressing AV-12 cells (as described above) are used with test compound dose concentrations in the range described for the binding assay. […] A cAMP standard curve is also run in every experiment. After the assay plates are read in an Envision™ instrument (Perkin-Elmer, Wellesley Mass.), the data is normalized to the standard curve and converted to percent inhibition for data analysis as described above for the receptor binding assay results. The Kb (nM) is calculated as a measure of the antagonist potency of the compound.

[2] = system: male Harlan Sprague-Dawley rats; assay: Animal model of dural plasma protein extravasation (PPE); format: in vivo; details: saline controls approximately 2.0, full prevention approximately 1.0
From the text: The dural plasma protein extravasation model is an established model for migraine. The ability of a test compound to reduce extravasation of plasma proteins into the dura under assay conditions is considered indicative of the compound's ability to reduce or prevent the dural inflammation thought to be symptomatic of migraine. (see Johnson, K. W., et al., Neuroreport, 8 (1997) 2237-2240.)
To assay compounds for their ability to reduce or prevent dural plasma protein extravasation, male Harlan Sprague-Dawley rats (250-350 g) are anesthetized with sodium pentobarbital (65 mg/kg, i.p.) and placed in a stereotaxic frame (David Kopf Instruments) with the incisor bar set at −2.5 mm. Following a midline sagital scalp incision, 2 pairs of bilateral holes are drilled through the skull (3.2 mm posterially, 1.8 and 3.8 mm laterally, all coordinates referenced to bregma). […]
The amount of FITC-BSA for each sample is quantified with a fluorescence microscope (Zeiss) equipped with a grating monochromator, a spectrophotometer, and a computer driven stage. Fluorescence measurements are taken at 25 points in a 5×5 grid in 500 μm steps on each dural sample with an excitation wavelength of approximately 490 nm and emission intensity measured at approximately 535 nm. The mean and standard deviation of the 25 measurements are determined. […]

Male Sprague Dawley rats [3] = assay: L5/L6 nerve ligation model (Chung model) of persistent pain; format: in vivo; details: i.p.
Protocol: The L5/L6 Nerve Ligation model (Chung model) is a well established model for persistent pain, specifically neuropathic pain. Surgery is performed on male Sprague Dawley rats (Harlan, Indianapolis, Ind.), weighing 150-200 g at the time of surgery as previously described (Kim and Chung, 1992). Briefly, neuropathic injury is produced by tightly ligating the left L5 and L6 spinal nerves under gas anesthesia with a mixture of isoflurane (3% for induction and 2% for maintenance) and O2. Following surgery, development of neuropathic pain is evaluated daily by measuring mechanical sensitivity of the injured paw to von Frey filaments with incremental bending forces (0.5-15 g) as described by (Chaplan et al., 1994). […] Test drug or vehicle is administered i.p. and the mechanical threshold for paw flinching is measured at 0.5, 1, 2, 3, 4 and 6 hr. after dosing. Measurement of the mechanical threshold for paw flinching is also done prior to surgery (preoperative control). Data are expressed as the threshold force required to elicit a response (g) as means±S.E.M. (standard error of the mean).

Q: How did the “cerebellar cGMP, stress” value (adult male CF-1 mice; 1 mg/kg (ip, 30 min)/stress) turn out when `Cc1nnc2n1-c1ccc(Cl)cc1C(c1ccccc1)=NC2` [Alprazolam, alprazolam] was run?
A: 60* percent

Q: With `CNC1=Nc2ccc(Cl)cc2C(c2ccccc2)=[N+]([O-])C1` [Chlordiazepoxide, chlordiazepoxide] as the compound, how does the “cerebellar cGMP, stress” value (adult male CF-1 mice; 10 mg/kg (ip, 30 min)/stress) read?
A: 129%

Q: What about the “cerebellar cGMP, stress” value (adult male CF-1 mice; 30 mg/kg (ip, 30 min)/stress) of the same compound?
A: 106* percent

Q: What about the “cerebellar cGMP, stress” value (adult male CF-1 mice; 60 mg/kg (ip, 30 min)/stress) of the same compound?
A: 71* percent

Q: With `Cc1c(CN2CCN(c3nccnc3-c3ccc(F)cc3)CC2)cnn1-c1ccccc1.Cl` [Example 19, 4-(5-methyl-1-phenyl-1H-pyrazol-4-ylmethyl)-3′-(4-fluorophenyl)-3,4,5,6-tetrahydro-2H-[1,2′]bipyrazine hydrochloride] as the compound, how does the “formalin-induced events, early and late phases” value (Male Sprague Dawley rats [1]) read?
A: active on both the early and late phases

Q: `Cl.Cn1cc(CN2CCN(c3cccnc3-c3ccc(F)cc3)CC2)cn1` [Example 74, 1-[2-(4-Fluoro-phenyl)-pyridin-3-yl]-4-(1-methyl-1H-pyrazol-4-ylmethyl)-piperazine hydrochloride] was tested. Which Kb (5-HT7 receptor; antagonist potency, cAMP, 5-HT7-expressing AV-12 cells) did it give?
A: ~44 nM

Q: What about the “antagonist character at the 5-HT7 receptor” value (5-HT7 receptor; cAMP formation) of the same compound?
A: full antagonist

Q: And the inhibition (5-HT7 receptor; cAMP formation, 5-HT7-expressing AV-12 cells)?
A: about 96%

Q: How did the “ratio of extravasation in the dura, stimulated side over unstimulated side” value [2] turn out when `Cc1c(CN2CCN(c3nccnc3-c3cccc(F)c3)CC2)cnn1C.Cl` [Example 127, 4-(1,5-Dimethyl-1H-pyrazol-4-ylmethyl)-3′-(3-fluoro-phenyl)-3,4,5,6-tetrahydro-2H-[1,2′]bipyrazinyl hydrochloride] was run?
A: about 1.16

Q: Which “threshold force required to elicit a response (mechanical allodynia)” value (Male Sprague Dawley rats [3]) does the source give for `Cc1ccc(-c2nccnc2N2CCN(Cc3cn(C)nc3C)CC2)cc1.O=C(O)/C=C/C(=O)O` [Example 186, 4-(1,3-Dimethyl-1H-pyrazol-4-ylmethyl)-3′-(4-methylphenyl)-3,4,5,6-tetrahydro-2H-[1,2′]bipyrazine fumarate] here?
A: active

Q: And the “cerebellar cGMP, stress” value (adult male CF-1 mice; 3 mg/kg (ip, 30 min)/stress)?
A: 278%

Q: And the “cerebellar cGMP, stress” value (adult male CF-1 mice; 10 mg/kg (ip, 30 min)/stress)?
A: 264%

Q: And the “cerebellar cGMP, stress” value (adult male CF-1 mice; 30 mg/kg (ip, 30 min)/stress)?
A: 234%

Q: What about the “cerebellar cGMP, stress” value (adult male CF-1 mice; 60 mg/kg (ip, 30 min)/stress) of the same compound?
A: 117* percent

Q: What does the source list for `CC1CCN(CC[C@H]2CCCN2S(=O)(=O)c2cccc(O)c2)CC1` [SB-269970]?
A: cerebellar cGMP, stress (adult male CF-1 mice; 3 mg/kg (ip, 30 min)/stress): 270%; cerebellar cGMP, stress (adult male CF-1 mice; 10 mg/kg (ip, 30 min)/stress): 225%; cerebellar cGMP, stress (adult male CF-1 mice; 30 mg/kg (ip, 30 min)/stress): 171* percent
